Assay results from publication PMC5987058, “Therapeutic Potential of a Scorpion Venom-Derived Antimicrobial Peptide and Its Homologs Against Antibiotic-Resistant Gram-Positive Bacteria” (Frontiers in Microbiology, 2018).
≈ marks a conversion by molar mass, not a printed value. Read-outs that look alike come from different tables or passages of the source. Ends that are not written are not given here.

Legend:
[1] = test system: Bacillus subtilis AB91021; assay: MIC, broth microdilution; format: cell-based; settings: LB medium, 10^5–10^6 CFU/mL, 16–18 h at 37°C, triplicate
Method: (§1) The antimicrobial activity was determined via a broth microdilution assay according to the procedure recommended by the Clinical and Laboratory Standards Institute with some modifications ([Hou et al., 2011]; [Li et al., 2016]). Bacteria were cultured in Luria-Bertani (LB) broth to OD600 = 0.6 at 37°C, then diluted to 10^5–10^6 CFU/mL in LB medium. Peptides were serially double diluted to a gradient concentration range from 48.3 to 1.5 μM in physiological saline. Eighty microliters of the bacterial suspension and 20 μL of diluted peptide at varying concentrations were added to 96-well plates, and then incubated for 16–18 h at 37°C with continuous shaking at 250 rpm. The antimicrobial activity of ampicillin and kanamycin were also tested as positive controls. Experiments were performed in triplicate. The minimum inhibitory concentration (MIC) was determined as the lowest peptide concentration at which no bacterial growth was observed.

[2] = test system: Bacillus thuringiensis AB92037; assay: MIC, broth microdilution; format: cell-based; settings: LB medium, 10^5–10^6 CFU/mL, 16–18 h at 37°C, triplicate
Method: as §1

[3] = test system: Escherichia coli AB94012; assay: MIC, broth microdilution; format: cell-based; settings: LB medium, 10^5–10^6 CFU/mL, 16–18 h at 37°C, triplicate
Method: as §1

[4] = test system: Escherichia coli ATCC25922; assay: MIC, broth microdilution; format: cell-based; settings: LB medium, 10^5–10^6 CFU/mL, 16–18 h at 37°C, triplicate
Method: as §1

[5] = test system: Micrococcus luteus AB93113; assay: MIC, broth microdilution; format: cell-based; settings: LB medium, 10^5–10^6 CFU/mL, 16–18 h at 37°C, triplicate
Method: as §1

[6] = test system: Pseudomonas aeruginosa ATCC9027; assay: MIC, broth microdilution; format: cell-based; settings: LB medium, 10^5–10^6 CFU/mL, 16–18 h at 37°C, triplicate
Method: as §1

[7] = test system: Staphylococcus aureus AB208193; assay: MIC, broth microdilution; format: cell-based; settings: LB medium, 10^5–10^6 CFU/mL, 16–18 h at 37°C, triplicate
Method: as §1

[8] = test system: Staphylococcus aureus ATCC25923; assay: MIC, broth microdilution; format: cell-based; settings: LB medium, 10^5–10^6 CFU/mL, 16–18 h at 37°C, triplicate
Method: as §1

[9] = test system: Staphylococcus aureus ATCC6538; assay: MIC, broth microdilution; format: cell-based; settings: LB medium, 10^5–10^6 CFU/mL, 16–18 h at 37°C, triplicate
Method: as §1

[10] = test system: Staphylococcus epidermidis AB208187; assay: MIC, broth microdilution; format: cell-based; settings: LB medium, 10^5–10^6 CFU/mL, 16–18 h at 37°C, triplicate
Method: as §1

[11] = test system: Staphylococcus epidermidis AB208188; assay: MIC, broth microdilution; format: cell-based; settings: LB medium, 10^5–10^6 CFU/mL, 16–18 h at 37°C, triplicate
Method: as §1

[12] = test system: MRSA P1374; assay: MIC, broth microdilution; format: cell-based, Staphylococcus aureus; settings: methicillin-resistant clinical isolate, LB medium, 10^5–10^6 CFU/mL, 16–18 h at 37°C, triplicate
Method: as §1

[13] = test system: MRSA P1381; assay: MIC, broth microdilution; format: cell-based, Staphylococcus aureus; settings: methicillin-resistant clinical isolate, LB medium, 10^5–10^6 CFU/mL, 16–18 h at 37°C, triplicate
Method: as §1

[14] = test system: PRSA P1389; assay: MIC, broth microdilution; format: cell-based, Staphylococcus aureus; settings: penicillin-resistant clinical isolate, LB medium, 10^5–10^6 CFU/mL, 16–18 h at 37°C, triplicate
Method: as §1

[15] = test system: S. aureus AB94004; assay: Competition assay with LPS or LTA (MIC); format: cell-based, Staphylococcus aureus; settings: 30 min, n = 3; for MIC, peptide treated with LPS 1: 1 mg/mL peptide + equal volume 5 mg/mL LPS from E. coli; for MIC, peptide treated with LTA: 1 mg/mL peptide + equal volume 5 mg/mL LTA from S. aureus; for MIC, peptide treated with LPS 1+LTA: peptide incubated with LPS 1 and LTA
Method: 1 mg/mL of peptides were incubated with an equal volume of 5 mg/mL of the lipopolysaccharide (LPS, Sigma-Aldrich: L3012/L8643) or lipoteichoic acid (LTA, Sigma-Aldrich: L2515) for 30 min. The MICs of peptides treated with LPS or LTA against S. aureus AB94004 were subsequently measured.

[16] = test system: Escherichia coli ATCC25922; settings: comparison values; ref Zeng et al., 2004, 2012; Cao et al., 2012a; cited from earlier work
Excerpt: (§2) Table 1 In Vitro antimicrobial activities of marcin-18 and its homologs compared with other peptides and antibiotics. | column: MIC (μM) / BmKn2; MIC (μM) / Amp; MIC (μM) / Kana

[17] = test system: Staphylococcus aureus AB94004; settings: comparison values; ref Zeng et al., 2004, 2012; Cao et al., 2012a; cited from earlier work
Excerpt: as §2

[18] = test system: MRSA P1381; assay: Mouse peritonitis model; format: in vivo, BALB/c mice; settings: n = 6
Method: Six to eight-week-old male BALB/c mice (18–21 g) were purchased from the Animal Center for Disease Control and Prevention (Hubei, China) and maintained under specific pathogen-free conditions at 25 ± 2°C and 50 ± 5% humidity, on a 12 h/12 h light/dark cycle.
All methods were performed in accordance with the relevant guidelines ([Dai et al., 2008]; [Peng et al., 2017]). The mice were intraperitoneally (i.p.) injected with 0.5 mL/mouse (5.85 × 10^7 CFU) of the exponential phase MRSA P1381 inoculum in physiological saline containing 5% (wt/v) mucin. At 1 h after the bacterial infection, the mice were i.p. injected with 0.4 mL/mouse of physiological saline (I) (to serve as a negative control), marcin-18 peptide (10 mg/kg) (II), marcin-18 peptide (25 mg/kg) (III), meucin-18 peptide (25 mg/kg) (IV), megicin-18 peptide (25 mg/kg) (V), and vancomycin (25 mg/kg) (VI). The vancomycin dose was set based on previous studies ([Cavanagh et al., 2013]; [Wang et al., 2018]). Each group included 6 mice. After another 24 h post administration, subject peritonea were lavaged with 1 mL of physiological saline and lavage fluids were then collected. Ascites were diluted and plated on LB agar so that the number of bacterial colonies could be counted. The ability of the three peptides to rescue mice from lethal bacteremia was observed 2–4 times daily and survival was tracked for 7 days.

[19] = test system: MRSA P1369; settings: methicillin-resistant clinical isolate; comparison values; ref Zeng et al., 2004, 2012; Cao et al., 2012a; cited from earlier work
Excerpt: (§3) Table 1 In Vitro antimicrobial activities of marcin-18 and its homologs compared with other peptides and antibiotics. | column: MIC (μM) / BmKn2; MIC (μM) / Van

[20] = test system: MRSA P1374; settings: methicillin-resistant clinical isolate; comparison values; ref Zeng et al., 2004, 2012; Cao et al., 2012a; cited from earlier work
Excerpt: as §3

[21] = test system: MRSA P1381; settings: methicillin-resistant clinical isolate; comparison values; ref Zeng et al., 2004, 2012; Cao et al., 2012a; cited from earlier work
Excerpt: as §3

[22] = test system: MRSA P1386; settings: methicillin-resistant clinical isolate; comparison values; ref Zeng et al., 2004, 2012; Cao et al., 2012a; cited from earlier work
Excerpt: as §3

[23] = test system: PRSA P1383; settings: penicillin-resistant clinical isolate; comparison values; ref Zeng et al., 2004, 2012; Cao et al., 2012a; cited from earlier work
Excerpt: as §3

[24] = test system: PRSA P1389; settings: penicillin-resistant clinical isolate; comparison values; ref Zeng et al., 2004, 2012; Cao et al., 2012a; cited from earlier work
Excerpt: as §3

| Compound | MIC [1] | MIC [2] | MIC [3] | MIC [4] | MIC [5] | MIC [6] | MIC [7] | MIC [8] | MIC [9] | MIC [10] | MIC [11] | MIC [12] | MIC [13] | MIC [14] | MIC, peptide treated with LPS 1 [15] | MIC, peptide treated with LTA [15] | MIC, peptide treated with LPS 1+LTA [15] | also measured |
| --- | --- | --- | --- | --- | --- | --- | --- | --- | --- | --- | --- | --- | --- | --- | --- | --- | --- | --- |
| FFGHLFKLATKIIPSLFR-NH2 [Marcin-18] | 2.9 µM | 2.9 µM | 11.7 µM | 5.9 µM | 23.4 µM | 5.9 µM | 2.9 µM | 2.9 µM | 1.5 µM | 2.9 µM | 2.9 µM | 2.9 µM | 1.5 µM | 2.9 µM | 2.9 µM | 2.9 µM | 2.9 µM | MIC, peptide treated with LPS 2 ([15]; 1 mg/mL peptide + equal volume 5 mg/mL LPS from P. aeruginosa): 2.9 µM |
| CC1(C)S[C@@H]2[C@H](NC(=O)[C@H](N)c3ccccc3)C(=O)N2[C@H]1C(=O)O [Amp, ampicillin] |  |  |  |  |  |  |  |  |  |  |  |  |  |  |  |  |  | MIC [16]: 33.7 µM (≈ 11.8 µg/mL); MIC [17]: 67.3 µM (≈ 23.5 µg/mL) |
| FFGALFKLATKIIPSLFR-NH2 [Megicin-18] | 3.0 µM | 1.5 µM | >48.3 µM | 12.1 µM | >48.3 µM | 12.1 µM | 3.0 µM | 3.0 µM | 1.5 µM | 1.5 µM | 1.5 µM | 3.0 µM | 3.0 µM | 1.5 µM | 3 µM | 3 µM | 3 µM |  |
| CN[C@H](CC(C)C)C(=O)N[C@H]1C(=O)N[C@@H](CC(N)=O)C(=O)N[C@H]2C(=O)N[C@H]3C(=O)N[C@H](C(=O)N[C@H](C(=O)O)c4cc(O)cc(O)c4-c4cc3ccc4O)[C@H](O)c3ccc(c(Cl)c3)Oc3cc2cc(c3O[C@@H]2O[C@H](CO)[C@@H](O)[C@H](O)[C@H]2O[C@H]2C[C@](C)(N)[C@H](O)[C@H](C)O2)Oc2ccc(cc2Cl)[C@H]1O [Van, vancomycin] |  |  |  |  |  |  |  |  |  |  |  |  |  |  |  |  |  | survival of infected mice ([18]; 25 mg/kg i.p. single dose 1 h after i.p. 5.85 × 10^7 CFU MRSA P1381, 7 days): 100%; bacteria in ascites of antibiotic-treated group ([18]; 25 mg/kg i.p., peritoneal lavage 24 h after administration): few detectable bacteria; MIC [19]: 4.2 µM (≈ 6.09 µg/mL); MIC [20]: 4.2 µM (≈ 6.09 µg/mL); MIC [21]: 2.1 µM (≈ 3.04 µg/mL); MIC [22]: 2.1 µM (≈ 3.04 µg/mL); MIC [23]: 4.2 µM (≈ 6.09 µg/mL); MIC [24]: 4.2 µM (≈ 6.09 µg/mL) |
